From US11008365B2 (NATIONAL INSTITUTE OF ADVANCED INDUSTRIAL SCIENCE AND …, priority 2016, dated 2021)
Entries after “also recorded” stand apart in the source; their conditions may differ.

How the values were obtained:
human monoclonal IgG = experiment: SPR of IgG (native or acid-treated) on immobilized AF.ab9; type: binding
Protocol: (§1) Preparation of the synthesized polypeptide was entrusted to GL Biochem (Shanghai). AF.ab9 was dissolved in a boric acid buffer solution (10 mM Borate-Na, 1 M NaCl, pH 8.5) and was immobilized on a sensor chip CM5 (GE Healthcare) by amine coupling.
(§2) Subsequently, human monoclonal IgG, Fab region, and Fc region having a native three-dimensional structure and a non-native three-dimensional structure were prepared. The Fab region and Fc region were prepared by subjecting human monoclonal IgG to papain digestion with Pierce (registered trademark) Fab Preparation Kit (Thermo Fisher Scientific Inc.) and then to purification by affinity chromatography using MabSelect SuRe (GE Healthcare), anion exchange chromatography using HiTrap DEAE (GE Healthcare), and gel filtration chromatography using Superdex 200 (GE Healthcare). The IgG, Fab region, and Fc region were each diluted to 5 μM and dialyzed against an acid buffer solution (50 mM NaH2PO4, 100 mM NaCl, pH 2.0) for 12 hours for accelerating acid denaturation and dialyzed against an HBS-T buffer solution for neutralization.
Subsequently, an example of evaluating the affinity of AF.ab9 for IgG treated with buffer solutions having different degrees of acidity will be described. IgG was dissolved in an HBS buffer solution (10 mM HEPES, 150 mM NaCl, pH 7.4) at a concentration of 5 μM. The acidity of a sodium phosphate buffer solution (50 mM NaH2PO4, 100 mM NaCl) as an acid buffer solution was adjusted to three degrees of pH 2.0, pH 3.0, and pH 4.0. An antibody was dialyzed against each of the buffer solutions for 12 hours and was then dialyzed against an HBS-T buffer solution for neutralization. The affinity of each of the resulting acid-treated IgG for AF.ab9 was measured by SPR (FIG. 4, Table 2). The SPR test was conducted in accordance with the conditions described above in this paragraph. […] Regarding the acid denaturation of the CH1-CL domain, it has been reported as the results of analysis by spectroscopic methods such as CD spectrum and fluorescence spectrum that a clear change in the three-dimensional structure of the CH1-CL domain occurs between pH 4.0 and pH 3.0 (Non Patent Literature 32).

[1] = target: T1, CH1-CL domain forming a non-native three-dimensional structure (Homo sapiens, UniProt P01834+P01857); experiment: SPR of synthetic peptides on immobilized acid-treated CH1-CL domain; type: binding; conditions: for Non-native CH1-CL domain (whether affinity was present or not): SPR Biacore T100, peptides 4-1 μM (FIG. 5), 50-1.6 μM (FIG. 6), 64-2 μM (FIG. 7); for affinity / binding response compared to AF.ab9: SPR, non-native CH1-CL domain immobilized, FIGS. 6 and 7
T1 construct: made in house; host or cells: Escherichia coli BL21(DE3)
Source text: Here, the AF.ab9 body is a 16-residue polypeptide consisting of the 8-residue linker region and the 8-residue microprotein chignolin, and the AF.ab9 arm is a 10-residue polypeptide consisting of a region selected from the random amino acid sequences. The preparation of the polypeptides was entrusted to GL Biochem (Shanghai). […] The measurement conditions were in accordance with those in the paragraph 3).
The CH1-CL domain forming a non-native three-dimensional structure prepared by the same method as in the paragraph 3) was immobilized on a sensor chip CM5 (GE Healthcare) by amine coupling, and the binding thereof to AF.ab31, AF.ab9, and alanine substitution products was measured with Biacore T100 (FIGS. 6 and 7, Table 3).

Fab region = experiment: SPR of Fab region (native or acid-treated) on immobilized AF.ab9; type: binding, human
Protocol: as §1, §2

Fc region = experiment: SPR of Fc region (native or acid-treated) on immobilized AF.ab9; type: binding, human
Protocol: as §1, §2

Row | Sequence | Non-native CH1-CL domain (whether affinity was present or not) [1] | affinity / binding response compared to AF.ab9 [1] | further results
1 | PNSGGGGSYDPETGTWPQEIRLILNW (Synthetic IgG binding peptide) [AF.ab9] | showed affinity; also recorded: Binding |  | affinity for AF.ab9: pH 2.0-treated IgG (human monoclonal IgG; IgG treated with acid buffer pH 2.0 for 12 hours, neutralized, 2-0.125 μM): strong binding response; also recorded: clear binding responses; affinity for AF.ab9: pH 3.0-treated IgG (human monoclonal IgG; IgG treated with acid buffer pH 3.0, neutralized, 2-0.125 μM): clear binding responses; affinity for AF.ab9: pH 4.0-treated IgG (human monoclonal IgG; IgG treated with acid buffer pH 4.0, neutralized, 2-0.125 μM): did not show a significant binding response; also recorded: No-binding; affinity for AF.ab9: Native IgG (human monoclonal IgG; acid-untreated IgG 2-0.125 μM, AF.ab9 immobilized on CM5): did not show a significant binding response; also recorded: No-binding; affinity for AF.ab9: pH 2.0-treated Fab (Fab region; Fab region treated with acid buffer pH 2.0, neutralized, 2-0.125 μM): strong binding response; affinity for AF.ab9: Native Fab (Fab region; acid-untreated Fab region 2-0.125 μM): did not show a significant binding response; also recorded: No-binding; affinity for AF.ab9: pH 2.0-treated Fc (Fc region; Fc region treated with acid buffer pH 2.0, neutralized, 2-0.125 μM): No-binding; affinity for AF.ab9: Native Fc (Fc region; acid-untreated Fc region 2-0.125 μM): did not show a binding response; also recorded: No-binding; binding response to the acid-treated Fc region compared with that on the non-native structure of the Fab region (Fc region; pH 2.0-treated Fc versus pH 2.0-treated Fab, SPR): 1/100
2 | PNSGGGGSYDPETGTWPAEIRLILNW [AF.ab9 Q18A] | Binding |  | 
3 | PQEIRLILNW (Synthetic IgG binding peptide) [AF.ab9 arm] | showed affinity; also recorded: Binding |  | 
4 | PNSGGGGSYDPETGTWPQEIRLIANW [AF.ab9 L24A] | Binding | the binding response decreased | 
5 | PNSGGGGSYDPETGTWAQEIRLILNW [AF.ab9 P17A] | Binding | the binding response decreased | 
6 | PNSGGGGSYDPETGTWPQWITLTITY (Synthetic IgG binding peptide) [AF.ab31] | Binding | substantially equivalent | 
